Experimental data as given in patent US7465729B2, “Methods of treatment of menopause and perimenopause using eszopiclone” (Sepracor Inc., priority 2004, dated 2008).

Key:
conscious dogs = assay: Dose escalation safety study, cardiovascular and respiratory parameters; details: acute intravenous, 3, 5 and 12 mg/kg
Protocol: To establish the safety of eszopiclone, a dose escalation study was carried out. Cardiovascular and respiratory parameters were evaluated in conscious dogs following acute intravenous administration of (R)-, (S)- or racemic zopiclone at three doses (3, 5 and 12 mg/kg).

mice [1] = assay: Antimuscarinic activity in vivo: mydriasis; details: any dose tested, maximum dose 100 mg/kg, p.o.
Protocol: (§1) Eszopiclone was evaluated for antimuscarinic activity in vivo.

mice [2] = assay: Antimuscarinic activity in vivo: oxotremorine induced salivation; details: doses up to 300 mg/kg, p.o.
Protocol: as §1

[3] = system: benzodiazepine receptor complex; details: cited from earlier work
[4] = in vivo; cited from earlier work
plasma proteins = details: cited from earlier work

CN1CCN(C(=O)OC2c3nccnc3C(=O)N2c2ccc(Cl)cn2)CC1 (racemic) [racemic zopiclone]
cardiotoxicity, as evidenced by the electrocardiogram (ECG) (conscious dogs): No evidence of cardiotoxicity
effect on blood pressure (conscious dogs): dose dependent, transient decreases in blood pressure
effect on heart rate (conscious dogs): compensatory increase in heart rate
Blood gases and blood chemistries (pH, pCO2, pO2, hematocrit, and lactate) (conscious dogs; all dose groups): remained unaffected
mydriasis (mice [1]): did not produce mydriasis
antagonism of oxotremorine induced salivation (mice [2]): neither (R)-, (S)-, nor racemic zopiclone significantly antagonized oxotremorine induced salivation
binding to the benzodiazepine receptor complex [3]: binds to the benzodiazepine receptor complex, or to a site linked closely to this receptor complex
absorption from the stomach [4]: well absorbed
binding to plasma proteins (plasma proteins): not highly bound
